Laboratory results published in patent US10160763B2, “WDR5 inhibitors and modulators” (Vanderbilt University, priority 2016, dated 2018).

Target: WDR5 (Δ23, residues 24-334) (Homo sapiens, UniProt P61964)
Experiment: biochemical
Settings: Kd (M), FPA-based binding affinity at the WDR5 WIN site; IC50 converted to Kd by modified Cheng-Prusoff equation; average of two experiments

Structure (SMILES) | Kd [M]
Cc1ccc(C(=O)NCc2cccc(-c3cn4c(n3)CCC4)c2)cc1Br [B171] | 6.26e-07
CCC(=O)N1CCCC(C(=O)NCc2cccc(-c3cn4c(n3)CCC4)c2)C1 (centres unmarked) [B181] | 1e-05
O=C(CC1CCNCC1)NCc1cccc(-c2cn3c(n2)CCC3)c1 [B150] | 1e-05
COc1cc(C(=O)NCc2cc(-c3cn4c(n3)CCC4)ccc2N2CCOCC2C)ccc1C (centres unmarked) [B203] | 2.3e-08
O=C(Nc1cc(Cl)cc(Cl)c1)N(Cc1cccc(-c2cn3c(n2)CCC3)c1)CC1CC1 [B50] | 4.8e-07
O=C(CC1CCCCC1)NCc1cccc(-c2cn3c(n2)CCC3)c1 [B20] | 3.63e-06
CC(NC(=O)Cc1ccc(F)c(Cl)c1)c1cccc(-c2cn3c(n2)CCC3)c1 (centres unmarked) [B206] | 1.35e-06
CC(C)C(NC(=O)Cc1ccc(F)c(Cl)c1)c1cccc(-c2cn3c(n2)CCC3)c1 (centres unmarked) [B221] | 1.17e-07
COc1cccc(C(=O)NCc2cc(-c3cn4c(n3)CCC4)ccc2OCc2ccccc2)c1 [B115] | 1.3e-08
CCOc1cccc(C(=O)N(C)Cc2cccc(-c3cn4c(n3)CCC4)c2)c1 [B110] | 1e-09
O=C(NCc1cccc(-c2cn3c(n2)CCC3)c1)c1cocn1 [B168] | 5.75e-07
Cc1cc(NC(=O)NCc2cccc(-c3cn4c(n3)CCC4)c2)ccc1Cl [B45] | 3.91e-07
COC(=O)c1cc(CN(CC2CC2)C(=O)c2ccc(OC)c(OC)c2)cc(-c2cn3c(n2)CCC3)c1 [B69] | 3.05e-07
O=C(C1CC1c1ccccc1)N(Cc1cccc(-c2cn3c(n2)CCC3)c1)CC1CC1 (centres unmarked) [B51] | 4.85e-07
COc1cccc(C(=O)N(Cc2cc(-c3cn4c(n3)CCC4)ccc2N2CCCC2)CC2CC2)c1 [B102] | 5.1e-07
COc1cccc(C(=O)N(Cc2cccc(-c3cn4c(n3)CCC4)c2)CC2CCCCC2)c1 [B36] | 2.58e-07
Cc1cnc(Cl)c(C(=O)NCc2cccc(-c3cn4c(n3)CCC4)c2)c1 [B169] | 6.68e-07
Cc1ccccc1-c1ccc(-c2cn3c(n2)CCC3)cc1CNC(=O)Cc1ccc(Cl)c(Cl)c1 [B145] | 6.77e-06
O=C(C1CCc2ccccc2C1)N(Cc1cccc(-c2cn3c(n2)CCC3)c1)CC1CC1 (centres unmarked) [B62] | 2.81e-06
Cc1cc(C(=O)N(C)Cc2cccc(-c3cn4c(n3)CCC4)c2)ccc1Cl [B38] | 4.48e-07
O=C(Cc1cccc(Cl)c1)NCc1cccc(-c2cn3c(n2)CCC3)c1 [B133] | 6e-06

Structure (SMILES) | Kd [M]
CC(=O)N1CCCCC1C(=O)NCc1cccc(-c2cn3c(n2)CCC3)c1 (centres unmarked) [B188] | 3.3e-08
COc1cc(C(=O)NC(c2cccc(-c3cn4c(n3)CCC4)c2)C(C)C)ccc1C (centres unmarked) [B220, N-(1-(3-(6,7-Dihydro-5H-pyrrolo[1,2-a]imidazol-2-yl)phenyl)-2-methylpropyl)-3-methoxy-4-methylbenzamide] | 2.04e-07
CS(=O)(=O)N1CCCC(C(=O)NCc2cccc(-c3cn4c(n3)CCC4)c2)C1 (centres unmarked) [B186] | 3e-09
O=C(NCc1cccc(-c2cn3c(n2)CCC3)c1)c1ccc(Cl)nc1 [B17] | 1.86e-06
O=C(NCc1cccc(-c2cn3c(n2)CCC3)c1)C1CCc2ccccc2C1 (centres unmarked) [B42] | 5.26e-07
COc1cc(C(=O)NCc2cc(-c3cn4c(n3)CCC4)cnc2N2CCOCC2)ccc1C [B223, N-((5-(6,7-dihydro-5H-pyrrolo[1,2-a]imidazol-2-yl)-2-morpholinopyridin-3-yl)methyl)-3-methoxy-4-methylbenzamide] | 9.1e-08
COc1cc(C(=O)N(Cc2cc(-c3cn4c(n3)CCC4)ccc2N2CCOCC2)CC2CCOCC2)ccc1C [B204] | 2.6e-08
COc1cccc(C(=O)NCc2cc(-c3cn4c(n3)CCC4)ccc2Oc2ccccc2)c1 [B119] | 1.8e-08
COc1cc(C(=O)N(Cc2cc(-c3cn4c(n3)CCC4)ccc2N2CCOCC2)CC2CC2)ccc1C [B200] | 4.04e-06
COc1cc(C(=O)NCc2cc(-c3cn4c(n3)CCC4)ccc2N2CC(C)OC(C)C2)ccc1C (centres unmarked) [B174] | 1.12e-07
COc1cccc(C(=O)NCc2cc(-c3cn4c(n3)CCC4)ccc2N2CC(C)OC(C)C2)c1 (centres unmarked) [B180] | 3.07e-07
COc1cccc(CC(=O)NCc2cccc(-c3cn4c(n3)CCC4)c2)c1 [B88] | 8.9e-07
CS(=O)(=O)N1CCCCC1C(=O)NCc1cccc(-c2cn3c(n2)CCC3)c1 (centres unmarked) [B182] | 1.09e-06
O=C(Cc1cccc(Br)c1)NCc1cccc(-c2cn3c(n2)CCC3)c1 [B136] | 3.09e-07
O=C(Cc1ccc(Cl)c(Cl)c1)N(Cc1cc(-c2cn3c(n2)CCC3)ccc1N1CCOCC1)CC1CC1 [B175, N-(Cyclopropylmethyl)-2-(3,4-dichlorophenyl)-N-(5-(6,7-dihydro-5H-pyrrolo[1,2-a]imidazol-2-yl)-2-morpholinobenzyl)acetamide] | 5.2e-08
COc1cc(C(=O)N(Cc2cc(-c3cn4c(n3)CCC4)ccc2N2CCCC2)CC2CC2)ccc1C [B179] | 3.62e-06
O=C(Cc1ccc(Cl)c(Cl)c1)NCc1cc(-c2cn3c(n2)CCC3)ccc1OC1CCCC1 [B109] | 1e-05
CC(C)C(=O)N1CCCC(C(=O)NCc2cccc(-c3cn4c(n3)CCC4)c2)C1 (centres unmarked) [B185] | 1.55e-07
COc1ccc(CN(Cc2cccc(-c3cn4c(n3)CCC4)c2)C(=O)c2ccc(OC)c(OC)c2)cc1 [B65] | 4.15e-07
O=C(Cc1cc(Cl)cc(Cl)c1)N(Cc1cccc(-c2cn3c(n2)CCC3)c1)CC1CC1 [B60, N-(Cyclopropylmethyl)-2-(3,5-dichlorophenyl)-N-(3-(6,7-dihydro-5H-pyrrolo[1,2-a]imidazol-2-yl)benzyl)acetamide] | 2.85e-07
NC(C(=O)NCc1cc(-c2cn3c(n2)CCC3)ccc1OC1CCC1)c1ccccc1 (centres unmarked) [B219] | 3.83e-07

Structure (SMILES) | Kd [M]
CN(Cc1cccc(-c2cn3c(n2)CCC3)c1)C(=O)Nc1cc(Cl)cc(Cl)c1 [B74] | 8.21e-07
O=C(C1CCCNC1)N(Cc1cccc(-c2cn3c(n2)CCC3)c1)CC1CC1 (centres unmarked) [B48] | 2.71e-05
CC(=O)N1CCC(C(=O)NCc2cccc(-c3cn4c(n3)CCC4)c2)CC1 [B25, 1-Acetyl-N-(3-(6,7-dihydro-5H-pyrrolo[1,2-a]imidazol-2-yl)benzyl)piperidine-4-carboxamide] | 1.37e-06
Cc1cc(C(=O)N(Cc2cccc(-c3cn4c(n3)CCC4)c2)CC2CC2)ccc1Cl [B44] | 2.96e-05
NC(C(=O)NCc1cc(-c2cn3c(n2)CCC3)ccc1N1CCOCC1)c1ccccc1 (centres unmarked) [B218] | 1.79e-07
CC(NC(=O)Cc1ccc(F)c(Cl)c1)c1cc(-c2cn3c(n2)CCC3)ccc1N1CCOCC1 (centres unmarked) [B214] | 4e-08
CCC(NC(=O)c1ccc(C)c(OC)c1)c1cccc(-c2cn3c(n2)CCC3)c1 (centres unmarked) [B215] | 1.7e-08
CC(=O)N1CCCC(C(=O)N(Cc2cc(-c3cn4c(n3)CCC4)ccc2OC2CCC2)CC2CC2)C1 (centres unmarked) [B161] | 1e-05
CCC(=O)N1CCCC(C(=O)NC(C)c2cc(-c3cn4c(n3)CCC4)ccc2OC2CCC2)C1 (centres unmarked) [B210] | 3.1e-07
O=C(Cc1ccc(Br)cc1)NCc1cccc(-c2cn3c(n2)CCC3)c1 [B106] | 1.33e-07
O=C(NCc1ccccc1)NCc1cccc(-c2cn3c(n2)CCC3)c1 [B34] | 2.71e-06
Cc1ccc(-c2ccc(-c3cn4c(n3)CCC4)cc2CNC(=O)Cc2ccc(Cl)c(Cl)c2)cc1 [B163] | 1e-05
COc1cc(C(=O)NC(C)c2cc(-c3cn4c(n3)CCC4)ccc2OC2CCC2)ccc1C (centres unmarked) [B207] | 1.6e-08
O=C(Cc1ccc(F)c(Cl)c1)NCc1cccc(-c2cn3c(n2)CCC3)c1 [B155] | 1.05e-07
O=C(CCc1cccnc1)NCc1cccc(-c2cn3c(n2)CCC3)c1 [B30] | 3.36e-06
N#Cc1cccc(C(=O)NCc2cccc(-c3cn4c(n3)CCC4)c2)c1 [B172] | 2.18e-07
COc1cccc(C(=O)N(Cc2cc(-c3cn4c(n3)CCC4)ccc2F)CC2CC2)c1 [B90] | 4.24e-05
COc1cccc(C(=O)NCc2cc(-c3cn4c(n3)CCC4)ccc2OC2CCCC2)c1 [B117] | 1e-05
CCOc1cccc(C(=O)N(Cc2cccc(-c3cn4c(n3)CCC4)c2)CC2CC2)c1 [B79] | 4.91e-07
COc1cccc(C(=O)N(Cc2cc(C)cc(-c3cn4c(n3)CCC4)c2)CC2CC2)c1 [B28] | 7.24e-07
O=C(Cc1ccc2c(c1)OCO2)NCc1cccc(-c2cn3c(n2)CCC3)c1 [B154] | 1e-09

Structure (SMILES) | Kd [M]
CC(NC(=O)Cc1ccc(Cl)c(Cl)c1)c1cccc(-c2cn3c(n2)CCC3)c1 (centres unmarked) [B192] | 1.25e-07
O=C(NCc1cccc(-c2cn3c(n2)CCC3)c1)c1ccc(F)c(F)c1 [B166] | 5.8e-08
COc1cccc(C(=O)NC(C)c2cccc(-c3cn4c(n3)CCC4)c2)c1 (centres unmarked) [B205] | 2.3e-08
O=C(Cc1cccnc1)NCc1cccc(-c2cn3c(n2)CCC3)c1 [B152] | 1.23e-06
O=C(Cc1ccc(Cl)nc1)NCc1cccc(-c2cn3c(n2)CCC3)c1 [B135] | 8.7e-08
COc1cccc(C(=O)N(Cc2cc(-c3cn4c(n3)CCC4)ccc2C)CC2CC2)c1 [B23] | 3.35e-07
COc1cccc(C(=O)N(Cc2cccc(-c3cn4c(n3)CCC4)c2)C(C2CC2)C2CC2)c1 [B81] | 1.18e-07
O=C(NCc1cccc(-c2cn3c(n2)CCC3)c1)c1ccc(O)nc1 [B26] | 2.68e-06
O=C(Cc1ccc(F)c(Cl)c1)NCc1cc(-c2cn3c(n2)CCC3)ccc1N1CCOCC1 [B193] | 3.23e-06
COc1ccc(C(=O)N(Cc2cc(Cl)cc(-c3cn4c(n3)CCC4)c2)CC2CC2)cc1OC [B46] | 1.25e-07
O=C(Cc1ccc(O)c(Cl)c1)NCc1cccc(-c2cn3c(n2)CCC3)c1 [B120] | 2.32e-07
O=C(NCc1cccc(-c2cn3c(n2)CCC3)c1)Nc1cc(Cl)cc(Cl)c1 [B33] | 3.52e-06
CCC(C)N(Cc1cccc(-c2cn3c(n2)CCC3)c1)C(=O)c1cccc(OC)c1 (centres unmarked) [B86] | 4.25e-07
Cc1cc(Cl)cc(C(=O)NCc2cccc(-c3cn4c(n3)CCC4)c2)c1 [B160] | 1.81e-06
CCC(=O)N1CCCC(C(=O)NC(C)c2cccc(-c3cn4c(n3)CCC4)c2)C1 (centres unmarked) [B211] | 1.1e-08
CC(=O)N1CCCC(CC(=O)NCc2cccc(-c3cn4c(n3)CCC4)c2)C1 (centres unmarked) [B140] | 8.67e-07
O=C(NCc1cccc(-c2cn3c(n2)CCC3)c1)Nc1ccccc1 [B22] | 3.83e-06
O=C(Cc1ccc(Cl)c(Cl)c1)NCc1cc(-c2cn3c(n2)CCC3)ccc1N1CCCCC1 [B101] | 2.75e-05
CC(=O)N1CCCC(C(=O)NCc2cc(-c3cn4c(n3)CCC4)ccc2OC2CCC2)C1 (centres unmarked) [B164] | 2.31e-07
COc1ccc(C(=O)N(Cc2cccc(-c3cn4c(n3)CCC4)c2)Cc2ccc(F)c(F)c2)cc1OC [B63] | 7.51e-07
